Legend:
Format in all cases: in vivo
Abutilon theophrasti [1] = experiment: Post-emergence herbicidal action; conditions: 1280 g/ha, rated visually after about 3 weeks vs untreated controls
Description: (§1) A. Post-Emergence Herbicidal Action and Crop Plant Compatibility Seeds of monocotyledonous and dicotyledonous weeds and crop plants were placed in sandy loam in plastic or wood-fiber pots, covered with soil and cultivated in a greenhouse under controlled growth conditions. 2 to 3 weeks after sowing, the test plants were treated at the one-leaf stage. The compounds of the invention, formulated in the form of wettable powders (WP) or as emulsion concentrates (EC), were then sprayed onto the green parts of the plants as aqueous suspension or emulsion with addition of 0.5% additive at a water application rate of 600 l/ha (converted). After the test plants had been kept in the greenhouse under optimum growth conditions for about 3 weeks, the activity of the preparations was rated visually in comparison to untreated controls. For example, 100% activity=the plants have died, 0% activity=like control plants. Tables B1 to B15 below show the effects of selected compounds of the general formula (I) according to Table I on various harmful plants and an application rate corresponding to 1280 g/ha, which were obtained by the experimental procedure mentioned above.

Alopecurus myosuroides [2] = experiment: Post-emergence herbicidal action; conditions: 1280 g/ha, rated visually after about 3 weeks vs untreated controls
Description: as §1

Amaranthus retroflexus [3] = experiment: Post-emergence herbicidal action; conditions: 1280 g/ha, rated visually after about 3 weeks vs untreated controls
Description: as §1

Echinochloa crus-galli [4] = experiment: Post-emergence herbicidal action; conditions: 1280 g/ha, rated visually after about 3 weeks vs untreated controls
Description: as §1

Pharbitis purpurea = experiment: Post-emergence herbicidal action; conditions: 1280 g/ha, rated visually after about 3 weeks vs untreated controls
Description: as §1

Polygonum convolvulus [5] = experiment: Post-emergence herbicidal action; conditions: 1280 g/ha, rated visually after about 3 weeks vs untreated controls
Description: as §1

Setaria viridis [6] = experiment: Post-emergence herbicidal action; conditions: 1280 g/ha, rated visually after about 3 weeks vs untreated controls
Description: as §1

Stellaria media [7] = experiment: Post-emergence herbicidal action; conditions: 1280 g/ha, rated visually after about 3 weeks vs untreated controls
Description: as §1

Viola tricolor [8] = experiment: Post-emergence herbicidal action; conditions: 1280 g/ha, rated visually after about 3 weeks vs untreated controls
Description: as §1

Abutilon theophrasti [9] = experiment: Pre-emergence herbicidal action; conditions: 1280 g/ha, scored visually after about 3 weeks vs untreated controls
Text: (§2) Pre-Emergence Herbicidal Action and Crop Plant Compatibility Seeds of monocotyledonous and dicotyledonous weed plants and crop plants were placed in plastic or wood fiber pots and covered with soil. The compounds of the invention, formulated in the form of wettable powders (WP) or as emulsion concentrates (EC), were then applied onto the surface of the covering soil as aqueous suspension or emulsion with addition of 0.5% additive at a water application rate of 600 l/ha (converted). After the treatment, the pots were placed in a greenhouse and kept under good growth conditions for the test plants. After about 3 weeks, the effect of the preparations was scored visually in comparison with untreated controls as percentages. For example, 100% activity=the plants have died, 0% activity=like control plants. Tables C1 to C14 below show the effects of selected compounds of the general formula (I) according to Table I on various harmful plants and an application rate corresponding to 1280 g/ha, which were obtained by the experimental procedure mentioned above.

Alopecurus myosuroides [10] = experiment: Pre-emergence herbicidal action; conditions: 1280 g/ha, scored visually after about 3 weeks vs untreated controls
Text: as §2

Amaranthus retroflexus [11] = experiment: Pre-emergence herbicidal action; conditions: 1280 g/ha, scored visually after about 3 weeks vs untreated controls
Text: as §2

Avena fatua = experiment: Pre-emergence herbicidal action; conditions: 1280 g/ha, scored visually after about 3 weeks vs untreated controls
Text: as §2

Echinochloa crus-galli [12] = experiment: Pre-emergence herbicidal action; conditions: 1280 g/ha, scored visually after about 3 weeks vs untreated controls
Text: as §2

Hordeum murinum = experiment: Pre-emergence herbicidal action; conditions: 1280 g/ha, scored visually after about 3 weeks vs untreated controls
Text: as §2

Lolium rigidum = experiment: Pre-emergence herbicidal action; conditions: 1280 g/ha, scored visually after about 3 weeks vs untreated controls
Text: as §2

Matricaria inodora = experiment: Pre-emergence herbicidal action; conditions: 1280 g/ha, scored visually after about 3 weeks vs untreated controls
Text: as §2

Polygonum convolvulus [13] = experiment: Pre-emergence herbicidal action; conditions: 1280 g/ha, scored visually after about 3 weeks vs untreated controls
Text: as §2

Setaria viridis [14] = experiment: Pre-emergence herbicidal action; conditions: 1280 g/ha, scored visually after about 3 weeks vs untreated controls
Text: as §2

Stellaria media [15] = experiment: Pre-emergence herbicidal action; conditions: 1280 g/ha, scored visually after about 3 weeks vs untreated controls
Text: as §2

Veronica persica [16] = experiment: Pre-emergence herbicidal action; conditions: 1280 g/ha, scored visually after about 3 weeks vs untreated controls
Text: as §2

Viola tricolor [17] = experiment: Pre-emergence herbicidal action; conditions: 1280 g/ha, scored visually after about 3 weeks vs untreated controls
Text: as §2

Veronica persica [18] = experiment: Post-emergence herbicidal action; conditions: 1280 g/ha, rated visually after about 3 weeks vs untreated controls
Description: as §1

SMILES | herbicidal activity on Abutilon theophrasti (Abutilon theophrasti [1]) [%] | herbicidal activity on Alopecurus myosuroides (Alopecurus myosuroides [2]) [%] | herbicidal activity on Amaranthus retroflexus (Amaranthus retroflexus [3]) [%] | herbicidal activity on Echinochloa crus-galli (Echinochloa crus-galli [4]) [%] | herbicidal activity on Pharbitis purpurea (Pharbitis purpurea) [%] | herbicidal activity on Polygonum convolvulus (Polygonum convolvulus [5]) [%] | herbicidal activity on Setaria viridis (Setaria viridis [6]) [%] | herbicidal activity on Viola tricolor (Viola tricolor [8]) [%] | herbicidal activity on Abutilon theophrasti (Abutilon theophrasti [9]) [%] | herbicidal activity on Alopecurus myosuroides (Alopecurus myosuroides [10]) [%] | herbicidal activity on Amaranthus retroflexus (Amaranthus retroflexus [11]) [%] | herbicidal activity on Echinochloa crus-galli (Echinochloa crus-galli [12]) [%] | herbicidal activity on Hordeum murinum (Hordeum murinum) [%] | herbicidal activity on Lolium rigidum (Lolium rigidum) [%] | herbicidal activity on Matricaria inodora (Matricaria inodora) [%] | herbicidal activity on Polygonum convolvulus (Polygonum convolvulus [13]) [%] | herbicidal activity on Setaria viridis (Setaria viridis [14]) [%] | herbicidal activity on Stellaria media (Stellaria media [15]) [%] | herbicidal activity on Veronica persica (Veronica persica [16]) [%] | herbicidal activity on Viola tricolor (Viola tricolor [17]) [%] | also measured
Cc1c(Sc2ccc(F)cc2F)c(Oc2ncccn2)nn1C [Example I-044, 2-[4-(2,4-Difluorophenyl)sulfanyl-1,5-dimethylpyrazol-3-yl]oxypyrimidine] | 100 | 90 | 100 | 100 | 100 | 100 | 100 | 100 | 100 | 100 | 100 | 100 | 90 | 90 | 100 | 90 | 100 | 100 | 100 | 100 | herbicidal activity on Stellaria media (Stellaria media [7]): 100%; herbicidal activity on Avena fatua (Avena fatua): 100%
Fc1cnc(Oc2nn3c(c2Sc2ccc(F)cc2F)CCOCC3)nc1 [Example I-192] | 80 | 80 | – | 80 | – | 100 | – | 80 | 100 | 100 | 80 | 100 | 90 | – | 100 | 100 | 100 | 90 | 100 | 100 | –
Cc1c(Sc2cccc(F)c2)c(Oc2ncccn2)nn1C [Example I-092] | 100 | 90 | 100 | 100 | 80 | 100 | 100 | 100 | 100 | 100 | 100 | 100 | 100 | 100 | 100 | 90 | 100 | 90 | 100 | 90 | herbicidal activity on Stellaria media (Stellaria media [7]): 100%; herbicidal activity on Avena fatua (Avena fatua): 90%
Cc1c(Sc2ccc(F)cc2)c(Oc2ncc(F)cn2)nn1C [Example I-090] | 100 | 100 | 100 | 80 | – | 100 | 100 | 100 | 100 | 100 | 100 | 100 | 100 | 90 | 100 | 90 | 100 | 100 | 100 | 100 | herbicidal activity on Stellaria media (Stellaria media [7]): 100%; herbicidal activity on Avena fatua (Avena fatua): 100%
COc1cnc(Oc2nn(C)c(C)c2Sc2cccc(Cl)c2)nc1 [Example I-134] | 90 | 90 | 100 | 80 | 80 | 80 | – | 100 | 100 | 100 | 100 | 90 | 90 | 100 | 100 | 100 | 100 | 100 | 100 | 100 | herbicidal activity on Avena fatua (Avena fatua): 80%
Cn1cc(Sc2ccc(Cl)cc2)c(Oc2ncc(Cl)cn2)n1 [Example I-188] | – | – | 100 | – | – | – | – | – | – | – | 100 | 80 | – | – | – | – | 100 | 90 | – | 100 | herbicidal activity on Veronica persica (Veronica persica [18]): 100%
Cc1c(Sc2cccc(Cl)c2)c(Oc2ncc(F)cn2)nn1C [Example I-091] | 80 | 80 | 80 | 80 | 80 | – | 100 | 100 | 100 | 100 | 100 | 100 | 100 | 90 | 100 | 100 | 100 | 100 | 100 | 100 | herbicidal activity on Avena fatua (Avena fatua): 90%
CCc1c(Sc2ccc(F)c(F)c2)c(Oc2ncc(F)cn2)nn1C [Example I-037] | 90 | – | 100 | – | 100 | 80 | 100 | 100 | 100 | 100 | 100 | 100 | 90 | 100 | 90 | 100 | 100 | 100 | 100 | 100 | herbicidal activity on Stellaria media (Stellaria media [7]): 100%
CC(C)n1cc(Sc2ccc(F)cc2)c(Oc2ncc(Cl)cn2)n1 [Example I-137] | – | – | 80 | – | – | – | – | 100 | – | – | 100 | – | – | – | – | 100 | 100 | 100 | – | 100 | herbicidal activity on Veronica persica (Veronica persica [18]): 90%
